This note sets out measurements from patent publication US20240400555A1 (Initial Therapeutics, Inc., priority 2023, published 2024).

The test system of the first test is HCT-116 Firefly-luciferase reporter cells. Description: Cellular c-MYC Reporter Assay. Format: cell-based. Conditions: Homo sapiens, HCT-116, 24 h, read-out: pIC50 (converted). In a few lines: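 Reporter cells seeded at 5e4 cells/mL in McCoy's 5A with 10% FBS and G418, dosed after 4–6 h at 0.2% final DMSO. After 24 h at 37 °C, luciferase luminescence was read with ONE-Glo.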
For the compound `Cc1cccc2ccnc(N(C(=O)c3ccc(-n4nnc5cccnc54)cc3)[C@H]3CCCNCC3)c12` [Example 228, (S)-4-(3H-[1,2,3]triazolo[4,5-b]pyridin-3-yl)-N-(azepan-4-yl)-N-(8-methylisoquinolin-1-yl)benzamide], the IC50 is > 20000 nM.
For `Cc1cccc2ccnc(N(C(=O)c3ccc(-n4nnc5cccnc54)cc3)[C@@H]3CCCNCC3)c12` [Example 229, (R)-4-(3H-[1,2,3]triazolo[4,5-b]pyridin-3-yl)-N-(azepan-4-yl)-N-(8-methylisoquinolin-1-yl)benzamide], the IC50 was 15100 nM.
For `Cc1cccc2ccnc(N(C(=O)c3ccc(-n4ncnn4)cc3)[C@@H]3CCCNC3)c12` [Example 234, (R)—N-(8-methylisoquinolin-1-yl)-N-(piperidin-3-yl)-4-(2H-tetrazol-2-yl)benzamide], the IC50 is 398 nM.

The test is the same for the next values; noted with them: Homo sapiens; untitled table following Table 8a; HCT-116 Firefly-luciferase reporter cells, 24 h; read-out: pIC50 (converted).
Turning to `Cc1cccc2ccnc(N(C(=O)c3ccc(-c4onc5ccccc45)cc3F)[C@@H]3CCCNC3)c12` [Example 196, (R)-4-(benzo[c]isoxazol-3-yl)-2-fluoro-N-(8-methylisoquinolin-1-yl)-N-(piperidin-3-yl)benzamide], the IC50 is > 20000 nM.
Still for that read-out and setting: then `Cc1cccc2ccnc(N(C(=O)c3ccc(-c4cncc(C#N)n4)cc3F)[C@@H]3CCCNC3)c12` [Example 198, (R)-2-fluoro-N-(8-methylisoquinolin-1-yl)-4-(6-cyanopyrazin-2-yl)-N-(piperidin-3-yl)benzamide], with 617 nM.
The same measure, in the same setting: then `Cc1cc(C2CCN(C(=O)N(c3nccc4cccc(C)c34)[C@@H]3CCCNC3)CC2)ccn1` [Example 199, (R)—N-(8-methylisoquinolin-1-yl)-4-(2-methylpyridin-4-yl)-N-(piperidin-3-yl)piperidine-1-carboxamide], with 263 nM; and `O=C(c1ncc(-n2nnc3cccnc32)cc1F)N(c1nccc2cccc(Cl)c12)[C@@H]1CCCNC1` [Example 200, (R)-5-(3H-[1,2,3]triazolo[4,5-b]pyridin-3-yl)-N-(8-chloroisoquinolin-1-yl)-3-fluoro-N-(piperidin-3-yl)picolinamide], with 77.6 nM; and `Cc1cccc2ccnc(N(C(=O)c3ncc(-n4nnc5cccnc54)cc3F)[C@@H]3CCCNC3)c12` [Example 201, (R)-5-(3H-[1,2,3]triazolo[4,5-b]pyridin-3-yl)-3-fluoro-N-(8-methylisoquinolin-1-yl)-N-(piperidin-3-yl)picolinamide], with 148 nM.
With `Cc1cncc(-c2ccc(C(=O)N(c3nccc4cccc(C)c34)[C@@H]3CCCNC3)c(F)c2)n1` [Example 202, (R)-2-fluoro-N-(8-methylisoquinolin-1-yl)-4-(6-methylpyrazin-2-yl)-N-(piperidin-3-yl)benzamide], the IC50 is 372 nM.
Regarding `Cc1nccnc1-c1ccc(C(=O)N(c2nccc3cccc(C)c23)[C@@H]2CCCNC2)c(F)c1` [Example 203, (R)-2-fluoro-N-(8-methylisoquinolin-1-yl)-4-(3-methylpyrazin-2-yl)-N-(piperidin-3-yl)benzamide], the IC50 is 129 nM.
Regarding `Cc1cccc2ccnc(N(C(=O)c3ccc(-c4cnccn4)cc3F)[C@@H]3CCCNC3)c12` [Example 204, (R)-2-fluoro-N-(8-methylisoquinolin-1-yl)-N-(piperidin-3-yl)-4-(pyrazin-2-yl)benzamide], the IC50 was 479 nM.
Consider `Cc1cccc2ccnc(N(C(=O)c3ccc(-n4nnc5ccc(C(F)(F)F)nc54)cc3F)[C@@H]3CCCNC3)c12` [Example 205, (R)-2-fluoro-N-(8-methylisoquinolin-1-yl)-N-(piperidin-3-yl)-4-(5-(trifluoromethyl)-3H-[1,2,3]triazolo[4,5-b]pyridin-3-yl)benzamide], for which the IC50 is 170 nM.
As for `Cc1cccc2ccnc(N(C(=O)N3CCC(Nc4ncccn4)CC3)[C@@H]3CCCNC3)c12` [Example 208, (R)—N-(8-methylisoquinolin-1-yl)-N-(piperidin-3-yl)-4-(pyrimidin-2-ylamino)piperidine-1-carboxamide], the IC50 was 3550 nM.
Same read-out and setting: then `Cc1ccc2nnn(-c3ccc(C(=O)N(c4nccc5ccn(C)c45)[C@@H]4CCCNC4)c(F)c3)c2n1` [Example 209, (R)-2-fluoro-N-(1-methyl-1H-pyrrolo[2,3-c]pyridin-7-yl)-4-(5-methyl-3H-[1,2,3]triazolo[4,5-b]pyridin-3-yl)-N-(piperidin-3-yl)benzamide], with 141 nM; and `Cc1cccc2ccnc(N(C(=O)c3ccc(Nc4ncccn4)cc3F)[C@@H]3CCCNC3)c12` [Example 210, (R)-2-fluoro-N-(8-methylisoquinolin-1-yl)-N-(piperidin-3-yl)-4-(pyrimidin-2-ylamino)benzamide], with 275 nM; and `Cc1cc(-c2ccc(C(=O)N(c3nccc4ccn(C)c34)[C@@H]3CCCNC3)c(F)c2)on1` [Example 212, (R)-2-fluoro-N-(1-methyl-1H-pyrrolo[2,3-c]pyridin-7-yl)-4-(3-methylisoxazol-5-yl)-N-(piperidin-3-yl)benzamide], with 355 nM.
Same read-out and setting: then `CNC(=O)c1cccnc1N(C(=O)c1ccc(-n2nnc3cccnc32)cc1F)[C@@H]1CCCNC1` [Example 213, (R)-2-(4-(3H-[1,2,3]triazolo[4,5-b]pyridin-3-yl)-2-fluoro-N-(piperidin-3-yl)benzamido)-N-methylnicotinamide], with 646 nM; and `Cc1cccc2ccnc(N(C(=O)c3ccc(-c4cnn5cccnc45)cc3F)[C@@H]3CCCNC3)c12` [Example 215, (R)-2-fluoro-N-(8-methylisoquinolin-1-yl)-N-(piperidin-3-yl)-4-(pyrazolo[1,5-a]pyrimidin-3-yl)benzamide], with 269 nM.
Take `CCc1ccc2nnn(-c3ccc(C(=O)N(c4nccc5cccc(C)c45)[C@@H]4CCCNC4)c(F)c3)c2n1` [Example 216, (R)-4-(5-ethyl-3H-[1,2,3]triazolo[4,5-b]pyridin-3-yl)-2-fluoro-N-(8-methylisoquinolin-1-yl)-N-(piperidin-3-yl)benzamide]: the IC50 was 437 nM.
With `Cc1cccc2ccnc(N(C(=O)c3c(F)cc(-n4nnc5cccnc54)cc3F)[C@@H]3CCCNC3)c12` [Example 218, (R)-4-(3H-[1,2,3]triazolo[4,5-b]pyridin-3-yl)-2,6-difluoro-N-(8-methylisoquinolin-1-yl)-N-(piperidin-3-yl)benzamide], the IC50 was 43.7 nM.
In the case of `Cc1cccc2ccnc(N(C(=O)c3ccc(N4CCOCC4)cc3)[C@@H]3CCCNC3)c12` [Example 219, (R)—N-(8-methylisoquinolin-1-yl)-4-morpholino-N-(piperidin-3-yl)benzamide], the IC50 is 6310 nM.
In the case of `O=C(c1ccc(-n2nnc3cccnc32)cc1F)N(c1nccc2cccc(C(F)(F)F)c12)[C@@H]1CCCNC1` [Example 221, (R)-4-(3H-[1,2,3]triazolo[4,5-b]pyridin-3-yl)-2-fluoro-N-(piperidin-3-yl)-N-(8-(trifluoromethyl)isoquinolin-1-yl)benzamide], the IC50 was 2000 nM.
Turning to `COc1cccc2ccnc(N(C(=O)c3ccc(-n4nnc5cccnc54)cc3F)[C@@H]3CCCNC3)c12` [Example 222, (R)-4-(3H-[1,2,3]triazolo[4,5-b]pyridin-3-yl)-2-fluoro-N-(8-methoxyisoquinolin-1-yl)-N-(piperidin-3-yl)benzamide], the IC50 was 93.3 nM.
On the same count and under the same terms, then `Cc1cccc2ccnc(N(C(=O)c3ccc(-n4nnc5ccccc54)cc3)[C@@H]3CCCNC3)c12` [Example 223, (R)-4-(1H-benzo[d][1,2,3]triazol-1-yl)-N-(8-methylisoquinolin-1-yl)-N-(piperidin-3-yl)benzamide], with 214 nM.
With `Cc1cccc2ccnc(N(C(=O)c3ccc(-n4nnc5cccnc54)cc3)[C@H]3CNCC[C@@H]3C)c12` [Example 224, 4-(3H-[1,2,3]triazolo[4,5-b]pyridin-3-yl)-N-(8-methylisoquinolin-1-yl)-N-((3R,4S)-4-methylpiperidin-3-yl)benzamide], the IC50 is > 20000 nM.
As for `Cc1cccc2ccnc(N(C(=O)c3ccc(-n4nnc5cccnc54)cc3)[C@H]3CNC[C@@H](C)C3)c12` [Example 225, 4-(3H-[1,2,3]triazolo[4,5-b]pyridin-3-yl)-N-(8-methylisoquinolin-1-yl)-N-((3R,5S)-5-methylpiperidin-3-yl)benzamide], the IC50 was 4790 nM.
Turning to `Cc1cccc2ccnc(N(C(=O)c3ccc(-n4nnc5cccnc54)cc3)[C@@H]3CC[C@@H](C)NC3)c12` [Example 226, 4-(3H-[1,2,3]triazolo[4,5-b]pyridin-3-yl)-N-(8-methylisoquinolin-1-yl)-N-((3R,6R)-6-methylpiperidin-3-yl)benzamide], the IC50 is > 20000 nM.
In the case of `Cc1cccc2ccnc(N(C(=O)c3ccc(-n4nnc5cccnc54)cc3)[C@H]3CCCCNC3)c12` [Example 227, (S)-4-(3H-[1,2,3]triazolo[4,5-b]pyridin-3-yl)-N-(azepan-3-yl)-N-(8-methylisoquinolin-1-yl)benzamide], the IC50 was > 20000 nM.
`Cc1cccc2ccnc(N(C(=O)c3ccc(-n4nnc5cccnc54)cc3)[C@H]3CCNC3)c12` [Example 231, (S)-4-(3H-[1,2,3]triazolo[4,5-b]pyridin-3-yl)-N-(8-methylisoquinolin-1-yl)-N-(pyrrolidin-3-yl)benzamide]: the IC50 was > 20000 nM.
Turning to `Cc1cccc2ccnc(N(C(=O)c3ccc(-n4nnc5cccnc54)cc3)[C@@H]3CCNC3)c12` [Example 232, (R)-4-(3H-[1,2,3]triazolo[4,5-b]pyridin-3-yl)-N-(8-methylisoquinolin-1-yl)-N-(pyrrolidin-3-yl)benzamide], the IC50 is 8510 nM.
The same measure, in the same setting: then `Cc1cccc2ccnc(N(C(=O)c3ccc(-c4cccnc4)cc3)[C@@H]3CCCNC3)c12` [Example 233, (R)—N-(8-methylisoquinolin-1-yl)-N-(piperidin-3-yl)-4-(pyridin-3-yl)benzamide], with 708 nM; and `Cc1cccc2ccnc(N(C(=O)c3ccc(-n4nccn4)cc3)[C@@H]3CCCNC3)c12` [Example 235, (R)—N-(8-methylisoquinolin-1-yl)-N-(piperidin-3-yl)-4-(2H-1,2,3-triazol-2-yl)benzamide], with 8510 nM.
